Where a chain is given by its changes, count along the chain named.

In experiment [1] the target is T1, FLT3(ITD, D835V) (Homo sapiens, UniProt P36888, D835V, form not given).
T1 construct: fused on or other part: DNA tag for the qPCR read-out (the KINOMEscan format)
T1 sequence (P36888 1-993 D835V): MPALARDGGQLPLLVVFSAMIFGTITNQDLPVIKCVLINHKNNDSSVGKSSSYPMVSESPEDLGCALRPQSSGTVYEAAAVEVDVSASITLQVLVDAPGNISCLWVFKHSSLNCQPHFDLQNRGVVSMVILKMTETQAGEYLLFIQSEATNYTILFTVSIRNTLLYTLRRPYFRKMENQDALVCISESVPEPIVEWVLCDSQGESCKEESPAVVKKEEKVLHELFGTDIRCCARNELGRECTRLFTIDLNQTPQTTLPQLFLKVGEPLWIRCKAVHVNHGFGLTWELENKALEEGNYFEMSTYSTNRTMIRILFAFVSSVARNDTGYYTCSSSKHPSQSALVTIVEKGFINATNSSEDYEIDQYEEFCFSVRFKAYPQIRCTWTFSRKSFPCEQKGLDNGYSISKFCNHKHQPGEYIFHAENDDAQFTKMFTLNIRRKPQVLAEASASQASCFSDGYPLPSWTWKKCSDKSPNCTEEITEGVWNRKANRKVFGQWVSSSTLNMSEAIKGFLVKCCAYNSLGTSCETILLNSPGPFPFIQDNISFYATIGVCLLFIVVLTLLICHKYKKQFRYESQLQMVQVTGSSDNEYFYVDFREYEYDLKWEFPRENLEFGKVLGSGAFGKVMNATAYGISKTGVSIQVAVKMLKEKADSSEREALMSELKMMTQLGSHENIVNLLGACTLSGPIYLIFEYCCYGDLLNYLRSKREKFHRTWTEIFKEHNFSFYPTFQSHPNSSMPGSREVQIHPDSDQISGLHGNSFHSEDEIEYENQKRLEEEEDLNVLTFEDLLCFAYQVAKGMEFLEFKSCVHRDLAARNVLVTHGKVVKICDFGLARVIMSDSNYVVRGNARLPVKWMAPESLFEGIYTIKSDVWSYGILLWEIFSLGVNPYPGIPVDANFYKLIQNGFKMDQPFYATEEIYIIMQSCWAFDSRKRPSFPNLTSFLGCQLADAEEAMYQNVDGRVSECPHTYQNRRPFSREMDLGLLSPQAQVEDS
It is filed as binding. Here is the method: (§1) The assay was carried out using KINOMEscan™ technology. The assay compounds were stored in 100% DMSO. The assay was carried out by means of 3-fold dilution and 11-point fitting. All compounds used for Kd determination were dispersed by ultrasound, then directly diluted and tested. All reactions were carried out in a 384-well polypropylene plate. Each portion has a final volume of 0.02 ml. The plate was incubated with shaking at room temperature for 1 hour, and then processed. The kinase concentration in the eluent was finally determined by qPCR method. Kd was obtained by fitting.

For experiment [2], the target named is T2, FLT3(ITD, F691L) (Homo sapiens, UniProt P36888, F691L, form not given).
T2 construct: fused on or other part: DNA tag for the qPCR read-out (the KINOMEscan format)
T2 sequence (P36888 1-993 F691L): T1 sequence (P36888 1-993 D835V) with F691L, V835D
The format is binding. As for the experimental part: as §1

As usually defined, the Kd is a measure of binding affinity in units of concentration. As for `CCc1nc(C(N)=O)c(Nc2ccc(N3CCC4(CCN(C)CC4)CC3)c(C)c2)nc1NC1CCOCC1.O=C(O)C(F)(F)F`, the Kd in experiment [1] amounted to 200 pM; in experiment [2] (FLT3(ITD, F691L)) it was 210 pM. In addition, the “activity higher than that of the known compound B” value in experiment [2] (FLT3 (ITD, F691L), ratio of Kd versus compound B) is 3.6 times.

Values taken from patent US20230141887A1, “CRYSTAL FORM OF DIAZASPIROPYRAN COMPOUND” (MEDSHINE DISCOVERY INC., priority 2020, published 2023).
